Laboratory results reported in US12202835B2, “Substituted aromatic ring-linked dioxinoquinazolines and dioxinoquinolines as kinase inhibitors” (BEIJING SCITECH-MQ PHARMACEUTICALS LIMITED, priority 2018, dated 2025).

Columns and labels:
[1] = biological target: TRKA kinase (Homo sapiens (Human), UniProt P04629); assay: Assay of small molecular compounds for inhibiting the activity of TRKA kinase (LANCE TR-FRET); assay type: biochemical
Summary of the method: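 LANCE TR-FRET with ULight-TK peptide; compounds pre-incubated 5 min with TRKA (2× solution 2 nM), then substrate/ATP added (4× mix: 400 nM peptide, 40 μM ATP). Reaction 60 min at room temperature in dark, 1% DMSO final; stopped, detection developed 60 min, signal read.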

[2] = biological target: c-MET kinase (Homo sapiens (Human), UniProt P08581); assay: Assay of small molecular compounds for inhibiting the activity of c-MET kinase (LANCE TR-FRET); assay type: biochemical; details: read-out: CMET IC50
Sequence of c-MET kinase (P08581 25-1390): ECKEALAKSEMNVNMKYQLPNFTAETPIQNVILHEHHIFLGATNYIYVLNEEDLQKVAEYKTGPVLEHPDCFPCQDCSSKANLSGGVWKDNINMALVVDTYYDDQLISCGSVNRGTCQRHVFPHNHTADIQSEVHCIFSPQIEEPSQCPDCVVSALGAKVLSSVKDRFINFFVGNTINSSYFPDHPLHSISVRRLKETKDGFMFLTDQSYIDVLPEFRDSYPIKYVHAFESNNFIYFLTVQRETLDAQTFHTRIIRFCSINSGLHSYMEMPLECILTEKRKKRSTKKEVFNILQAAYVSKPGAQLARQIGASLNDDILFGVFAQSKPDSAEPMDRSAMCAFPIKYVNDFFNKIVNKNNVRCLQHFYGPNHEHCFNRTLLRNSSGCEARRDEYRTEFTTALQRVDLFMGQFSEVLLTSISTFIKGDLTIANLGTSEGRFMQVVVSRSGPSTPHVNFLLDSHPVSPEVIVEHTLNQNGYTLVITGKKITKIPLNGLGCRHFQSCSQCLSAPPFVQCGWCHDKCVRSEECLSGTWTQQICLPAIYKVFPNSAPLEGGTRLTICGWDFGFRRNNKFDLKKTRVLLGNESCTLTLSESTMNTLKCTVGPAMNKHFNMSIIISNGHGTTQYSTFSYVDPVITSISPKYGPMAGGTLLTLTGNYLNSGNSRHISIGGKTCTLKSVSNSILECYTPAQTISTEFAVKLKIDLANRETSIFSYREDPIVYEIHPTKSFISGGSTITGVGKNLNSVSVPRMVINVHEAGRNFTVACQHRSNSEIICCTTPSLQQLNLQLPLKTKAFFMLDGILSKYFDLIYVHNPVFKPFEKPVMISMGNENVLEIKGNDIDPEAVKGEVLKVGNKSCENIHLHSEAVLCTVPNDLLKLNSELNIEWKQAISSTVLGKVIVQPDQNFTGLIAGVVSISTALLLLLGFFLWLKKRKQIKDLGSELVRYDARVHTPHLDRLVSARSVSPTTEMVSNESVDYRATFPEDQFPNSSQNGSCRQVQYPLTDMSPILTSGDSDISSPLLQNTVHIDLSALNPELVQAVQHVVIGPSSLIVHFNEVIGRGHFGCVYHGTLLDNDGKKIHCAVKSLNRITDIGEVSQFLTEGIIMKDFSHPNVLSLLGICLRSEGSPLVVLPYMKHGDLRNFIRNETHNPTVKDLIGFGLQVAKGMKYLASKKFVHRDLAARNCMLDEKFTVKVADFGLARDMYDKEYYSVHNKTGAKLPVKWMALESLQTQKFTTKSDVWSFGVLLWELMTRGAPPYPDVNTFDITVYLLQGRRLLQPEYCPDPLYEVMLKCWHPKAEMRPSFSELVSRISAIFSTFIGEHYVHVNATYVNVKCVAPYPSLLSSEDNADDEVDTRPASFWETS
Summary of the method: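 LANCE TR-FRET assay with c-MET at 1 nM final after a 5 min room-temperature preincubation with compound (11-point, 3-fold series, 2500–0.042 nM final, 4% DMSO). ULight-JAK-1 (Tyr1023) peptide (100 nM final) and ATP (10 μM final) reacted 60 min in the dark. Inhibition was taken relative to controls, then IC50 fitted.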

[3] = test system: MHCC97H cells; assay: Assay for inhibiting the proliferation of MHCC97H cells (CCK-8); assay type: cell-based; details: Homo sapiens
Method: (§1) In particular, the method of the assay of small molecular compounds for inhibiting cell proliferation is as follows: • 1. Cells cultured to a logarithmic growth phase (adherent cells need to be digested with trypsin and neutralized) were taken, pipetted evenly, transferred to a 15 mL centrifuge tube, and centrifuged at 1000 rpm at room temperature for 4 minutes; • 2. The supernatant was discarded; 5 mL of complete medium was added and pipetted evenly; 10 μL of cell suspension was taken out, mixed well with 10 μL of 0.4% trypan blue, and counted under a cell counter; the proportion of living cells was ensured to be above 90%; • 3. 80 μL of cell suspension per well was seeded into a 96-well plate according to the conditions shown in the attached table, and cultured overnight; in the outer 36 wells of the 96-well plate, no cells were added but only sterile water was added; only the inner 60 wells were used for cell assay and control; • 4. 5×compound dilution: the compounds were serially diluted 3-fold to obtain a total of 9 concentrations; 80-fold overall dilution was completed with complete medium, the resulting concentration was 5 times the final drug concentration, and DMSO concentration was 1.25%; • 5. 20 μL of the corresponding compounds with different concentration gradients were added to each well of assay wells of the 96-well plate; 20 μL of complete medium was added to positive and negative control wells and shaken well; and the final concentration of DMSO in each well was 0.25%; • 6. After 72 hours of incubation, 10 μL of CCK-8 reagent was added to each well and further incubated at 37° C. for 1-2 hours; and the OD value was read at 450 nm; • 7. Cell survival rate (%)=[(As−Ab)/(Ac−Ab)]*100% • As: Assay well (medium containing cells, CCK-8, compound), • Ac: Control well (medium containing cells, CCK-8), • Ab: Blank well (CCK-8, medium without cell and compound), • 8. The values were imported into Graphpad Prism 5 software for IC50 calculation.

[4] = test system: Ba/F3 LMNA-NTRK1 cells; assay: Assay for inhibiting the proliferation of Ba/F3 LMNA-NTRK1 cells (CCK-8); assay type: cell-based; details: Mus musculus, BaF3
Method: as §1, with “5×compound dilution: the compounds were serially diluted 3-fold to obtain a total of 9 concentrations; 80-fold overall dilution was completed with complete medium, the resulting concentration was 5 times the final drug concentration, and DMSO concentration was 1.25%; • 5.” left out

[5] = test system: Ba/F3 LMNA-NTRK1-G595R cells; assay: Assay for inhibiting the proliferation of Ba/F3 LMNA-NTRK1-G595R cells (CCK-8); assay type: cell-based; details: Mus musculus, BaF3
Method: as §1

[6] = biological target: VEGFR-2 kinase (Homo sapiens (Human), UniProt P35968); assay: Assay of small molecular compounds for inhibiting the activity of VEGFR-2 kinase (LANCE TR-FRET); assay type: biochemical; details: read-out: VEGFR2 IC50
Sequence of VEGFR-2 kinase (P35968 20-1356): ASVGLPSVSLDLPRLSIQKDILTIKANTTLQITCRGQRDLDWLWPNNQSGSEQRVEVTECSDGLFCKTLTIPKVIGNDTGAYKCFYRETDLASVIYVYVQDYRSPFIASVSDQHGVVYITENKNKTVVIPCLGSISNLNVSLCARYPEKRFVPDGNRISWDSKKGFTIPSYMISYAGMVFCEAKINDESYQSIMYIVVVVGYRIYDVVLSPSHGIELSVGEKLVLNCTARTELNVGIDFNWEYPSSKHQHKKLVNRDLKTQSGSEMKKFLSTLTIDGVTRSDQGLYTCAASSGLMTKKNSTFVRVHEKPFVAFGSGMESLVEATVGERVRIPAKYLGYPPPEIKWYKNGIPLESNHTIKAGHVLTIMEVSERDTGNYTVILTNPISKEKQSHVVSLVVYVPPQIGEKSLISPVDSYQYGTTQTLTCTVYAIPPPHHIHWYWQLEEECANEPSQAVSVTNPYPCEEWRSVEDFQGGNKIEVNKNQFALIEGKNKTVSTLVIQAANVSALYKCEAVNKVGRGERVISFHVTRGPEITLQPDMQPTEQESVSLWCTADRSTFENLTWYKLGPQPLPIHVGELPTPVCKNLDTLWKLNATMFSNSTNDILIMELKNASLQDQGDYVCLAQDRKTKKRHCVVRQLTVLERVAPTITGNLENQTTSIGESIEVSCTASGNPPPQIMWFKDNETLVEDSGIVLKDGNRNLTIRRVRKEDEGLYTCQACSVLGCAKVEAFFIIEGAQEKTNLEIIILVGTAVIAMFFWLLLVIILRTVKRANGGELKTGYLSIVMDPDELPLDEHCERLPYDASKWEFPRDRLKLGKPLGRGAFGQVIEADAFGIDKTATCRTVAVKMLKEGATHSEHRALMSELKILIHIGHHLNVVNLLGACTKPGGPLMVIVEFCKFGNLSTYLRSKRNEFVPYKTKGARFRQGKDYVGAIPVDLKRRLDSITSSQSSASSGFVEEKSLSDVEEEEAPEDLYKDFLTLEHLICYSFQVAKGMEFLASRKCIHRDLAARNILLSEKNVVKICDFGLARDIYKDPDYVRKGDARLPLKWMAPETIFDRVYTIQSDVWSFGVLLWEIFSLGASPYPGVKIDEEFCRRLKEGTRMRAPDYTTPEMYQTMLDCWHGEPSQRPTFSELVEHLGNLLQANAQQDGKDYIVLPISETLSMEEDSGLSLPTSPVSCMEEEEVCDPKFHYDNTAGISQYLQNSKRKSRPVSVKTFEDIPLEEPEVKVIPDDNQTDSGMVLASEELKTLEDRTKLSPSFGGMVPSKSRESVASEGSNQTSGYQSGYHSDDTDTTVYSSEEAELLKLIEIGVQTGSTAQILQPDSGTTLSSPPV
Summary of the method: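 LANCE TR-FRET with human VEGFR-2 (2× stock 0.5 nM) preincubated 30 min with compound (final 2500 to 0.042 nM, 11-point 3-fold), then ULight-JAK-1 (Tyr1023) peptide/ATP added (4× stocks 200 nM/40 μM). Reaction 60 min room temperature, 4% DMSO; IC50 from inhibition-rate curve.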

[7] = test system: Ba/F3-AXL cells; assay: Assay for inhibiting the proliferation of Ba/F3-AXL cells (CCK-8); assay type: cell-based; details: 72 hours of incubation, medium with 100 ng/mL hGas6, CCK-8
Method: The values were then imported into Graphpad Prism 5 software for curve fitting, and IC50 was calculated.

[8] = test system: EBC1 cells; assay: Assay for inhibiting the proliferation of EBC1 cells (CCK-8); assay type: cell-based; details: Homo sapiens, EBC-1
Method: as §1

Sequence of TRKA kinase (P04629 33-796): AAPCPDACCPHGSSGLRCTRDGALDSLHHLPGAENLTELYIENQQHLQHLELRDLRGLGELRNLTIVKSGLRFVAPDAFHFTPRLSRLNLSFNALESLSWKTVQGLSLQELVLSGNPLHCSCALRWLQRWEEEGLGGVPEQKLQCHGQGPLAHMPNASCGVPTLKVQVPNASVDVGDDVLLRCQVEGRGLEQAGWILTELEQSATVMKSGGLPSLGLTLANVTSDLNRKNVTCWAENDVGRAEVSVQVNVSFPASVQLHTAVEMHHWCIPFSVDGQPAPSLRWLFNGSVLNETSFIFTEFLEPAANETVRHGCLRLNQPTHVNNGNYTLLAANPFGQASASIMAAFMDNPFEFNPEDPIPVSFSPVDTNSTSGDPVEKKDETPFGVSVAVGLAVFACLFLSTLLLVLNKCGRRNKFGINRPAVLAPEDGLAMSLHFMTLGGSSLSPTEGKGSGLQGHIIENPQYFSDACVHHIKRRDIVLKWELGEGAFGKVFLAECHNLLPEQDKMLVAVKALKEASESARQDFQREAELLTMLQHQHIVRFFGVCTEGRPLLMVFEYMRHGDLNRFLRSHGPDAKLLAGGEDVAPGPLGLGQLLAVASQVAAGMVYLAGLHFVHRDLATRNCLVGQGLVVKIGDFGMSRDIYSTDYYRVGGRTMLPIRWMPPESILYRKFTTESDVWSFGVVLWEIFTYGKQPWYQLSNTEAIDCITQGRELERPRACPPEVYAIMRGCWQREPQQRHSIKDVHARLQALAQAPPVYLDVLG

Structure (SMILES)	IC50 [1]	IC50 [2]	IC50 [4]	IC50 [5]	IC50 [6]	IC50 [7]	IC50 [3]	IC50 [8]
CCn1cc(C(=O)Nc2ccc(Oc3ccnc4cc(OC)c5c(c34)OCCO5)cc2F)c(=O)n(-c2ccc(F)cc2)c1=O [Example 154, N-(2-fluoro-4-((5-methoxy-2,3-dihydro-[1,4]dioxino[2,3-f]quinolin-10-yl)oxy)phenyl)-3-(4-fluorophenyl)-1-ethyl-2,4-dioxo-1,2,3,4-tetrahydropyrimidine-5-carboxamide]	< 50 nM	≤ 50 nM	< 50 nM	50 to 200 nM				
Cn1cc(C(=O)Nc2ccc(Oc3ccnc4ccc5c(c34)OCCO5)cc2)c(=O)n(-c2ccc(F)cc2)c1=O [Example 158, N-(4-((2,3-dihydro-[1,4]dioxino[2,3-f]quinolin-10-yl)oxy)phenyl)-3-(4-fluorophenyl)-1-methyl-2,4-dioxo-1,2,3,4-tetrahydropyrimidine-5-carboxamide]	50 to 500 nM		200 to 1000 nM	> 1000 nM				
CN(C)CCCOc1cc2nccc(Oc3ccc(NC(=O)c4cn(C)c(=O)n(-c5ccc(F)cc5)c4=O)cc3F)c2c2c1OCCO2 [Example 86, N-(3-fluoro-4-((5-((3-dimethylamino)propoxy)-2,3-dihydro-[1,4]dioxino[2,3-f]quinolin-10-yl)oxy)phenyl)-3-(4-fluorophenyl)-1-methyl-2,4-dioxo-1,2,3,4-tetrahydropyrimidine-5-carboxamide]			< 50 nM	50 to 200 nM	50 to 500 nM	< 50 nM	50 to 200 nM	≤ 50 nM

Further lines, with some results ahead:

IC50 [1]	IC50 [2]	IC50 [4]	IC50 [5]	IC50 [6]	IC50 [7]	Structure (SMILES)	IC50 [3]	IC50 [8]
< 50 nM	≤ 50 nM	< 50 nM	≤ 50 nM			CCn1cc(C(=O)Nc2cc(F)c(Oc3ccnc4cc(OC)c5c(c34)OCCO5)cc2C)c(=O)n(-c2ccc(F)cc2)c1=O [Example 178, N-(5-fluoro-4-((5-methoxy-2,3-dihydro-[1,4]dioxino[2,3-f]quinolin-10-yl)oxy)-2-methylphenyl)-3-(4-fluorophenyl)-1-ethyl-2,4-dioxo-1,2,3,4-tetrahydropyrimidine-5-carboxamide]	≤ 50 nM	
50 to 500 nM		200 to 1000 nM	> 1000 nM			CCn1cc(C(=O)Nc2ccc(Oc3ccnc4ccc5c(c34)OCCO5)cc2)c(=O)n(-c2ccc(F)cc2)c1=O [Example 159, N-(4-((2,3-dihydro-[1,4]dioxino[2,3-f]quinolin-10-yl)oxy)phenyl)-3-(4-fluorophenyl)-1-ethyl-2,4-dioxo-1,2,3,4-tetrahydropyrimidine-5-carboxamide]		
